Source: paper PMC11022895 (Drug Metabolism and Disposition, 2021)
Read-outs that look alike come from different tables or passages of the source.

Columns and labels:
CYP1A2 [1] = target: T1, CYP1A2 (Homo sapiens, UniProt P05177); assay: Inhibition of rCYP1A2 in microsomes from CYP450-overexpressing HEK293 cells; format: in vitro ADME; settings: probe phenacetin; for Ki: rCYP1A2 microsomes
T1 sequence (P05177 1-516): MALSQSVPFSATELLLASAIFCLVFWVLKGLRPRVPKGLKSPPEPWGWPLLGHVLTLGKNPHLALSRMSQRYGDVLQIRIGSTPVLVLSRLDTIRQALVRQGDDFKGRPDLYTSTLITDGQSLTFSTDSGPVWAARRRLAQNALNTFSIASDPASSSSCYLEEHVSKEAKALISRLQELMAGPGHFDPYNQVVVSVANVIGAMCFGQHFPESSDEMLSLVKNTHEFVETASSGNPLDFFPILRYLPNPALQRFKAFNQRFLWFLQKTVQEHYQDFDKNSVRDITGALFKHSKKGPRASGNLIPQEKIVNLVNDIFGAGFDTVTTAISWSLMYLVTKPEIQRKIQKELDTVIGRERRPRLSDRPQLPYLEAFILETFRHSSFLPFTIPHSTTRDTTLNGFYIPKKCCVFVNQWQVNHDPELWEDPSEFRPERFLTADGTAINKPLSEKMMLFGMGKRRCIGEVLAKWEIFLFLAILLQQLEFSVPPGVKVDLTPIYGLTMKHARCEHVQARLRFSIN

CYP2B6 [2] = target: T2, CYP2B6 (Homo sapiens, UniProt P20813); assay: Inhibition of rCYP2B6 in microsomes from CYP450-overexpressing HEK293 cells; format: in vitro ADME; settings: for IC50 / Ki: probe bupropion; for inhibition of activity against efavirenz: probe efavirenz (Supplemental Table 2)
T2 sequence (P20813 1-491): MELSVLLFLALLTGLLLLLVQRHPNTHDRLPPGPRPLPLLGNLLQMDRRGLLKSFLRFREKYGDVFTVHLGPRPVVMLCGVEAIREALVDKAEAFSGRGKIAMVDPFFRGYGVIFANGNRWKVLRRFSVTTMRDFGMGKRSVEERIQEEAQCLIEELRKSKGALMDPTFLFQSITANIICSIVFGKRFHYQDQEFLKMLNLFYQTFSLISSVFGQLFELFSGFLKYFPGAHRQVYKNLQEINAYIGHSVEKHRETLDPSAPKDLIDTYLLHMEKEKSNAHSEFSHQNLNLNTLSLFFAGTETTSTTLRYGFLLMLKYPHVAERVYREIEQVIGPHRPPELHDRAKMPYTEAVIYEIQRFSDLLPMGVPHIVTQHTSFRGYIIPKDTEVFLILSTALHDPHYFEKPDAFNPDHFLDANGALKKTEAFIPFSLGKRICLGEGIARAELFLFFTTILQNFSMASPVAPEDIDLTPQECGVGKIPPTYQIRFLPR

CYP2E1 [3] = target: T3, CYP2E1 (Homo sapiens, UniProt P05181); assay: Inhibition of rCYP2E1 in microsomes from CYP450-overexpressing HEK293 cells; format: in vitro ADME; settings: for IC50 / Ki: probe chlorzoxazone; for decrease in activity: CYP2E1
T3 sequence (P05181 whole entry): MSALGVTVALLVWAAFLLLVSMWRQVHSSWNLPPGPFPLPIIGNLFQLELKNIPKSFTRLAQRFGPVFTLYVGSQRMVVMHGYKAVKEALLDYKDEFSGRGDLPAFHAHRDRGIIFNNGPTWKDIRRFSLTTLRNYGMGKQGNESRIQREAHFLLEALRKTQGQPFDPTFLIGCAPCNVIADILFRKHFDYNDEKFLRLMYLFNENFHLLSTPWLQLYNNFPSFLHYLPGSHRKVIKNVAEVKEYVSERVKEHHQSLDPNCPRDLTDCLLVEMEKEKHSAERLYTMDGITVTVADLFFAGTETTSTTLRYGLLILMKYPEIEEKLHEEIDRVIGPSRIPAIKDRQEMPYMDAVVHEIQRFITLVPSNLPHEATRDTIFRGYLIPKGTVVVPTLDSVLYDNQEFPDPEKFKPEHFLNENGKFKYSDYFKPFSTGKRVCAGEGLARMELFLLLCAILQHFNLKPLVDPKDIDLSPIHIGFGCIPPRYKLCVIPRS

CYP1A2 [4] = target: T1, CYP1A2; assay: Inhibition of CYP1A2 probe; format: in vitro ADME; settings: for IC50: probe phenacetin; for Ki: probe phenacetin (CYP1A2)
CYP2B6 [5] = target: T2, CYP2B6; assay: Inhibition of CYP2B6 probe; format: in vitro ADME; settings: for IC50: probe bupropion; for Ki: probe bupropion (CYP2B6)
CYP2E1 [6] = target: T3, CYP2E1; assay: Inhibition of CYP2E1 probe; format: in vitro ADME; settings: for IC50: probe chlorzoxazone; for Ki: probe chlorzoxazone (CYP2E1)
CYP1A2 [7] = target: T1, CYP1A2; assay: IC50 shift study; format: in vitro ADME
CYP2B6 [8] = target: T2, CYP2B6; assay: IC50 shift study; format: in vitro ADME
CYP2E1 [9] = target: T3, CYP2E1; assay: IC50 shift study; format: in vitro ADME
[10] = Unbound fraction in incubation; format: in vitro ADME; settings: human, human liver microsomes in buffer
CYP2C9 = CYP2C9 (Homo sapiens, UniProt P11712); settings: for inhibition of activity against S-warfarin: rCYP2C9 microsomes, probe S-warfarin (Supplemental Table 2)
CYP2C9, sequence (P11712 whole entry): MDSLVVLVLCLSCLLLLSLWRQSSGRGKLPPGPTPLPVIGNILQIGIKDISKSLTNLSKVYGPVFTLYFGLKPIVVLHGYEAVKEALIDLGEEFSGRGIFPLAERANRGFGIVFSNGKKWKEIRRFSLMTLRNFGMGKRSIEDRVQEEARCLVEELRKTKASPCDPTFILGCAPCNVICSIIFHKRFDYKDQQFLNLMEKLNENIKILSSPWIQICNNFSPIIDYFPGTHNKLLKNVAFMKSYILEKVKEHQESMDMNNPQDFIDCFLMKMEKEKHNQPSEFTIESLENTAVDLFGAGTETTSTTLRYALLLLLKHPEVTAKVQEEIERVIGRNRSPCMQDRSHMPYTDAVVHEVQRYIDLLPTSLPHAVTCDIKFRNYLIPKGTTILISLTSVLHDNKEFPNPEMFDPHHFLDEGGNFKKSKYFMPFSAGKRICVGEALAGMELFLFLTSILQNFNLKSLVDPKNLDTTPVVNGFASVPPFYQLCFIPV

CYP2D6 = CYP2D6 (Homo sapiens, UniProt P10635); settings: rCYP2D6 microsomes; probe bufuralol (Supplemental Table 2)
CYP2D6, sequence (P10635 whole entry): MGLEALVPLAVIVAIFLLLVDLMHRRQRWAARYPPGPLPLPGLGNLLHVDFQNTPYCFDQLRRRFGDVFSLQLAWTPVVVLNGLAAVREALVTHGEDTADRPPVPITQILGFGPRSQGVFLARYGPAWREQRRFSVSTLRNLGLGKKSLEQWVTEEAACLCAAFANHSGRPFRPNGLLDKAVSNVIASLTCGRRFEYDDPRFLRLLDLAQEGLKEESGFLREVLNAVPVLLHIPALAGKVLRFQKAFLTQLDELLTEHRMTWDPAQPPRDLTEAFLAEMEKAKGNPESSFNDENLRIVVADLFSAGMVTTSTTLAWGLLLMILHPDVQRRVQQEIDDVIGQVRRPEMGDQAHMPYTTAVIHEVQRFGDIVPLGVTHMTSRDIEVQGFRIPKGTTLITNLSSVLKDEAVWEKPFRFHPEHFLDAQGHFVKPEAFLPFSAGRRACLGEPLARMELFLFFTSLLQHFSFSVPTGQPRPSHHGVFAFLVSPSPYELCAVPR

[11] = plasma, ref Manini et al., 2015, Cox et al., 2019, cited from earlier work
[12] = Unbound fraction in incubation; format: in vitro ADME; settings: human, HEK293 cell microsomes in buffer
[13] = IC50,u, rCYP2B6 microsomes, corrected for fu,inc
[14] = Ki,u, rCYP2B6 microsomes, corrected for fu,inc
[15] = IC50,u, rCYP2E1 microsomes, corrected for fu,inc
[16] = Ki,u, rCYP2E1 microsomes, corrected for fu,inc
[17] = IC50,u, HLM, corrected for fu,inc
[18] = Ki,u, HLM, corrected for fu,inc
[19] = IC50 (+), 30-min preincubation with NADPH
[20] = IC50 (−), 30-min preincubation without NADPH

| SMILES | IC50 (CYP2B6 [2]; IC50, rCYP2B6 microsomes) [nM] | IC50 (CYP2B6 [2]; [13]) [nM] | Ki (CYP2B6 [2]; Ki, rCYP2B6 microsomes) [nM] | Ki (CYP2B6 [2]; [14]) [nM] | inhibition of activity against efavirenz (CYP2B6 [2]; rCYP2B6 microsomes) | IC50 (CYP2E1 [3]; IC50, rCYP2E1 microsomes) [nM] | IC50 (CYP2E1 [3]; [15]) [nM] | Ki (CYP2E1 [3]; Ki, rCYP2E1 microsomes) [nM] | Ki (CYP2E1 [3]; [16]) [nM] | IC50 (CYP2B6 [5]; IC50, HLM) [nM] | IC50 (CYP2B6 [5]; [17]) [nM] | Ki (CYP2B6 [5]; Ki, HLM) [nM] | Ki (CYP2B6 [5]; [18]) [nM] | IC50 (CYP2E1 [6]; IC50, HLM) [nM] | IC50 (CYP2E1 [6]; [17]) [nM] | Ki (CYP2E1 [6]; Ki, HLM) [nM] | Ki (CYP2E1 [6]; [18]) [nM] | IC50 (CYP2B6 [8]; [19]) [nM] | IC50 (CYP2B6 [8]; [20]) [nM] | IC50 (CYP2E1 [9]; [19]) [nM] | also measured |
| --- | --- | --- | --- | --- | --- | --- | --- | --- | --- | --- | --- | --- | --- | --- | --- | --- | --- | --- | --- | --- | --- |
| C=C(C)[C@@H]1CCC(C)=C[C@H]1c1c(O)cc(CCCCC)cc1O [CBD, cannabidiol] | 2100 ± 610 | 130 ± 38 | 1100 ± 240 | 68 ± 15 | Strong inhibition | 590 ± 130 | 37 ± 8.1 | 340 ± 98 | 21 ± 6.1 | 2700 ± 2400 | 260 ± 240 | 2200 ± 530 | 220 ± 52 | 1400 ± 250 | 140 ± 25 | 590 ± 230 | 58 ± 23 | 1300 ± 450 | 1900 ± 660 | 900 ± 400 | IC50 (CYP1A2 [1]; IC50, rCYP1A2 microsomes): 2100 ± 930 nM; Ki (CYP1A2 [1]; Ki): 1900 ± 1200 nM; Ki (CYP1A2 [1]; Ki,u, corrected for fu,inc): 120 ± 74 nM; IC50 (CYP1A2 [4]; IC50, HLM): 6800 ± 1500 nM; IC50 (CYP1A2 [4]; [17]): 670 ± 150 nM; Ki (CYP1A2 [4]; Ki, HLM): 2100 ± 1100 nM; Ki (CYP1A2 [4]; [18]): 210 ± 110 nM; IC50 (CYP1A2 [7]; [19]): 1800 ± 310 nM; IC50 (CYP1A2 [7]; [20]): 2100 ± 250 nM; IC50 (CYP2E1 [9]; [20]): 1100 ± 660 nM; fraction unbound at 30 min, 50 µM [10]: 0.098 ± 0.023; inhibition of activity against S-warfarin (CYP2C9): Strong inhibition; inhibition of activity against bufuralol (CYP2D6): Strong inhibition; Cmax ([11]; 20-mg inhaled dose of CBD): 10.3 nM; Cmax ([11]; oral dose of 800 mg of CBD): 703 nM |
| CCCCCc1cc(O)c2c(c1)OC(C)(C)c1ccc(C)cc1-2 [CBN, cannabinol] | 2100 ± 870 | 630 ± 260 | 620 ± 190 | 190 ± 57 | Strong inhibition | 920 ± 100 | 280 ± 30 | 210 ± 97 | 63 ± 29 | 1700 ± 590 | 880 ± 310 | 1700 ± 420 | 880 ± 220 | 1100 ± 720 | 570 ± 370 | 330 ± 91 | 170 ± 47 | 2000 ± 700 | 2100 ± 830 | 730 ± 210 | decrease in activity (CYP2B6 [2]; CYP2B6, 10 µM cannabinoid): 75%; decrease in activity (CYP2E1 [3]; 1 µM cannabinoid): 77%; decrease in activity (CYP2E1 [3]; 10 µM cannabinoid): 80%; IC50 (CYP2E1 [9]; [20]): 870 ± 150 nM; fraction unbound at 30 min, 50 µM [10]: 0.052 ± 0.081; fraction unbound at 30 min, 50 µM [12]: 0.03 ± 0.052; decrease in activity (CYP2C9; CYP2C9, 10 µM cannabinoid): 55%; inhibition of activity against S-warfarin (CYP2C9): Strong inhibition; inhibition of activity against bufuralol (CYP2D6): no inhibition was observed |
